Measured values taken from patent US7105718B2, “Compositions and methods for regulating metabolism in plants” (The Regents of the University of Colorado, priority 2000, dated 2006).
“Also recorded” adds a separate entry of the source.

What was measured:
[1] = system: cell wall UCP; assay: Flow cytometry of non-permeabilized cells stained with anti-UCP2 antibody for cell wall UCP; format: cell-based, Chlamydomonas reinhardtii; conditions: wild type strains of C. reinhardtii treated with norflurazon; FIG. 3
Protocol: Wild type (CC124, mt−) and cell wall-less (CC, mt+) C. reinhardtii were tested for the presence of UCP by flow cytometry. Non-permeabilized cells were stained with anti-UCP2 antibody (Santa Cruz Technologies). Cells were prepared for staining with goat anti-UCP2 antibody (Santa Cruz Pharmaceuticals) followed by fluorescein conjugated anti-rabbit or goat outer step antibodies, respectively. Data were acquired on a Coulter Elite Epics flow cytometer (Coulter, Hialeah, Fla.) and analyzed with CellQuest software, (Becton Dickinson, San Jose, Calif.). Cells were stained for intracellular peroxide using 6-carboxy-2′-7′-dichlorodihydrofluorescein diacetate (DCF-DA, Molecular Probes, Eugene, Oreg.). Briefly, cells were incubated with DCF-DA for 20 minutes, washed twice in PBS containing 5% fetal calf serum and analyzed flow cytometrically. Mitochondrial membrane potential was assessed using Mitotracker Red (CM-H2XROS, Molecular Probes, Eugene, Oreg.). The cells were resuspended in cold, or room temperature, PBS containing 13% fetal calf serum, 0.5 micromolar Mitotracker Red dye was then added to the suspension. The cells were incubated at 37° C. for 20 minutes, pelleted, and resuspended in prewarmed medium for analysis. […] Each sample population was classified for cell size (forward scatter) and complexity (side scatter), gated on a population of interest and evaluated using 40,000 cells.

[2] = system: wild type strains of algae; assay: Light sensitivity of wild type algae in the presence of the herbicide; format: cell-based, Chlamydomonas reinhardtii; conditions: in the presence of norflurazon

Compound: CNc1cnn(-c2cccc(C(F)(F)F)c2)c(=O)c1Cl [norflurazon]
- cell wall expression of UCP [1]: upregulates cell wall expression of UCP; also recorded: Increased levels of uncoupling protein
- light sensitivity of algae [2]: made light-sensitive
